16 molecules from PubChem BioAssay AID200 (DTP/NCI, 2004) can be followed below.

The assay has as its system B6C3F1 mice, B16 melanoma ip, median survival T/C. The assay can be described thus: NCI In Vivo Anticancer Drug Screen. Data for tumor model B16 Melanoma (intraperitoneal) in B6C3F1 mice. The note with it: endpoint: median survival time, higher = longer survival. The method, boiled down: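 Values are T/C ratios: the measurement in treated animals divided by that in vehicle-treated controls, using survival or tumor size in mice carrying transplantable tumors.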

[1] abbreviates: dose: 1.56 mg/kg/injection, schedule: Q01DX009 (ip), vehicle: saline with Tween-80.
[2] abbreviates: dose: 3.12 mg/kg/injection, schedule: Q01DX009 (ip), vehicle: saline with Tween-80.
[3] abbreviates: dose: 6.25 mg/kg/injection, schedule: Q01DX009 (ip), vehicle: saline with Tween-80.
Where [4] appears, read: dose: 12.5 mg/kg/injection, schedule: Q01DX009 (ip), vehicle: saline with Tween-80.
Where [5] appears, read: dose: 25.0 mg/kg/injection, schedule: Q01DX009 (ip), vehicle: saline with Tween-80.
The mark [6] stands for this setting: dose: 50.0 mg/kg/injection, schedule: Q01DX009 (ip), vehicle: Klucel (hydroxypropylcellulose) (HPC).
Setting [7] is: dose: 100.0 mg/kg/injection, schedule: Q01DX009 (ip), vehicle: Klucel (hydroxypropylcellulose) (HPC).
Where [8] appears, read: dose: 50.0 mg/kg/injection, schedule: Q01DX009 (ip), vehicle: saline with Tween-80.
Where [9] appears, read: dose: 200.0 mg/kg/injection, schedule: Q01DX009 (ip), vehicle: Klucel (hydroxypropylcellulose) (HPC).
[10] abbreviates: dose: 400.0 mg/kg/injection, schedule: Q01DX009 (ip), vehicle: Klucel (hydroxypropylcellulose) (HPC).
Setting [11] is: dose: 12.5 mg/kg/injection, schedule: Q01DX009 (ip), vehicle: saline.
[12] abbreviates: dose: 25.0 mg/kg/injection, schedule: Q01DX009 (ip), vehicle: saline.
The mark [13] stands for this setting: dose: 50.0 mg/kg/injection, schedule: Q01DX009 (ip), vehicle: saline.
Where [14] appears, read: dose: 100.0 mg/kg/injection, schedule: Q01DX009 (ip), vehicle: saline.
The mark [15] stands for this setting: dose: 200.0 mg/kg/injection, schedule: Q01DX009 (ip), vehicle: saline.
The mark [16] stands for this setting: dose: 400.0 mg/kg/injection, schedule: Q01DX009 (ip), vehicle: saline.
Setting [17] is: dose: 800.0 mg/kg/injection, schedule: Q01DX009 (ip), vehicle: saline.

SMILES strings stand for the structures. Where “and” joins values, the source holds several entries; their conditions need not be identical. Identical values can stand only once. Toxic doses and inconclusive results are not listed. Where a SMILES comes first, the peptide text is derived from it. [ ]: non-standard residue; d: D form. The star is where a group is joined. Cbz = O=C(OCc1ccccc1)*; Nva = CCC[CH](N)C(=O)O

Take `CNCCN=c1ccc2c3c1c(O)c1c(O)ccc(=O)c1c3[nH]n2CCNCCO`: the T/C by setting is: (dose: 0.38 mg/kg/injection, schedule: Q01DX009 (ip), vehicle: water) 273 % of control; (dose: 0.75 mg/kg/injection, schedule: Q01DX009 (ip), vehicle: water) 357 % of control; (dose: 1.5 mg/kg/injection, schedule: Q01DX009 (ip), vehicle: water) 357 % of control; (dose: 3.0 mg/kg/injection, schedule: Q01DX009 (ip), vehicle: water) 309 % of control; (dose: 3.12 mg/kg/injection, schedule: Q01DX009 (ip), vehicle: water) 169 % of control.

Regarding `CCCCCCCC(=O)[O][Hg][CH2]C1COC([CH2][Hg][O]C(=O)CCCCCCC)CO1` (stereo not given), the T/C is 95 % of control and 102 % of control under setting [1]; 96 % of control and 103 % of control under setting [2]; 94 % of control and 101 % of control under setting [3]; 93 % of control and 97 % of control under setting [4]; 91 % of control under setting [5].

For the molecule `CC(C)(C)SCC(NC(=O)OCC1c2ccccc2-c2ccccc21)C(=O)O` (stereo not given), the T/C was 91 % of control (dose: 25.0 mg/kg/injection, schedule: Q01DX009 (ip), vehicle: Klucel (hydroxypropylcellulose) (HPC)); 97 % of control under setting [6]; 91 % of control and 92 % of control under setting [7].

In the case of `C=C(C)C(=NC(C)(C)C)Nc1ccccc1`, the T/C by setting is: under setting [3], 98 % of control; under setting [4], 122 % of control; under setting [5], 109 % of control; under setting [8], 91 % of control; (dose: 100.0 mg/kg/injection, schedule: Q01DX009 (ip), vehicle: saline with Tween-80) 96 % of control; (dose: 200.0 mg/kg/injection, schedule: Q01DX009 (ip), vehicle: saline with Tween-80) 114 % of control.

With `COC(=O)C(F)C(Br)C(=O)OC` (stereo not given), the T/C by setting is: (dose: 3.13 mg/kg/injection, schedule: Q01DX009 (ip), vehicle: saline with Tween-80) 98 % of control; under setting [3], 91 % of control; under setting [4], 93 % of control; under setting [5], 93 % of control; under setting [8], 90 % of control.

`CCCCNc1nc(N)nc(Nc2ccc(Br)cc2)c1N=O`: the T/C under setting [6] was 97 % of control and the T/C under setting [7] was 92 % of control.

Regarding `c1cc[c]([Sn]([c]2ccccc2)([c]2ccccc2)[n]2cccc2)cc1`, the T/C is 113 % of control (dose: 0.79 mg/kg/injection, schedule: Q01DX009 (ip), vehicle: saline with Tween-80); 98 % of control under setting [1]; 93 % of control under setting [2]; 113 % of control under setting [3].

With `C=C(c1ccc(OC)c(OC)c1)c1nccc2cc(OC)c(OC)cc12`, the T/C under setting [6] is 103 % of control; the T/C under setting [7] is 98 % of control; the T/C under setting [9] is 87 % of control; the T/C under setting [10] is 97 % of control; the T/C (dose: 800.0 mg/kg/injection, schedule: Q01DX009 (ip), vehicle: Klucel (hydroxypropylcellulose) (HPC)) is 90 % of control.

For `O=C(Nc1ccc(C2=NCCN2)cc1)c1ccc(C(=O)Nc2ccc(C3=NCCN3)cc2)c(Cl)c1`, the T/C was 105 % of control under setting [1]; 115 % of control (dose: 1.56 mg/kg/injection, schedule: Q01DX009 (ip), vehicle: saline); 98 % of control under setting [2]; 89 % of control (dose: 3.12 mg/kg/injection, schedule: Q01DX009 (ip), vehicle: saline); 100 % of control under setting [3]; 100 % of control (dose: 6.25 mg/kg/injection, schedule: Q01DX009 (ip), vehicle: saline). The T/C under setting [4] was 93 % of control; the T/C under setting [11] is 93 % of control; the T/C under setting [5] is 110 % of control; the T/C under setting [12] is 94 % of control; the T/C under setting [8] was 110 % of control; the T/C under setting [13] was 99 % of control.

As for `CC(C)CC(NC(=O)C(F)(F)F)C(=O)O` (stereo not given), the T/C is 89 % of control under setting [12] and 91 % of control under setting [13].

On to `CCNC(=O)OCc1c(COC(=O)NCC)c(-c2ccc(Cl)c(Cl)c2)n2c1CCC2`, for which the T/C (dose: 0.78 mg/kg/injection, schedule: Q01DX009 (ip), vehicle: saline with Tween-80) is 95 % of control; the T/C under setting [2] is 119 % of control; the T/C under setting [4] was 162 % of control; the T/C under setting [5] was 103 % of control.

In the case of `COc1ccc(CC2C(=O)NC(C)C(=O)N(C)C3Cc4ccc(cc4)Oc4cc(ccc4O)CC(C(=O)NC(C)C(=O)NC(C)C(=O)N2C)N(C)C3=O)cc1` (stereo not given), the T/C reads like this: (dose: 0.25 mg/kg/injection, schedule: Q01DX009 (ip), vehicle: saline with Tween-80) 158 % of control; (dose: 0.5 mg/kg/injection, schedule: Q01DX005 (ip), vehicle: saline with Tween-80) 110 % of control; (dose: 0.5 mg/kg/injection, schedule: Q01DX005 (iv), vehicle: saline with Tween-80) 102 % of control and 104 % of control; (dose: 0.5 mg/kg/injection, schedule: Q01DX009 (ip), vehicle: saline + Tween-80 + alcohol) 118 % of control; (dose: 0.5 mg/kg/injection, schedule: Q01DX009 (ip), vehicle: saline with Tween-80) 162 % of control and 166 % of control; (dose: 1.0 mg/kg/injection, schedule: Q01DX005 (ip), vehicle: saline with Tween-80) 124 % of control. Further, the T/C was 109 % of control and 105 % of control (dose: 1.0 mg/kg/injection, schedule: Q01DX005 (iv), vehicle: saline with Tween-80); 117 % of control (dose: 1.0 mg/kg/injection, schedule: Q01DX009 (ip), vehicle: saline + Tween-80 + alcohol); 91 % of control (dose: 1.0 mg/kg/injection, schedule: Q01DX009 (ip), vehicle: saline with Tween-80); 122 % of control and 107 % of control (dose: 2.0 mg/kg/injection, schedule: Q01DX005 (iv), vehicle: saline with Tween-80); 122 % of control (dose: 2.0 mg/kg/injection, schedule: Q01DX009 (ip), vehicle: saline with Tween-80); 122 % of control (dose: 4.0 mg/kg/injection, schedule: Q01DX005 (ip), vehicle: saline with Tween-80). In addition, the T/C was 109 % of control and 111 % of control (dose: 4.0 mg/kg/injection, schedule: Q01DX005 (iv), vehicle: saline with Tween-80); 150 % of control (dose: 4.0 mg/kg/injection, schedule: Q01DX009 (ip), vehicle: other); 161 % of control (dose: 4.0 mg/kg/injection, schedule: Q01DX009 (ip), vehicle: saline with Tween-80); 110 % of control and 116 % of control (dose: 8.0 mg/kg/injection, schedule: Q01DX005 (iv), vehicle: saline with Tween-80); 159 % of control (dose: 8.0 mg/kg/injection, schedule: Q01DX009 (ip), vehicle: other).

On to `N#CC(OC1OC(COC2OC(CO)C(O)C(O)C2O)C(O)C(O)C1O)c1ccccc1` (stereo not given), for which the T/C is 101 % of control under setting [12]; 100 % of control (dose: 25.0 mg/kg/injection, schedule: Q01DX009 (ip), vehicle: water); 104 % of control under setting [13]; 102 % of control (dose: 50.0 mg/kg/injection, schedule: Q01DX009 (ip), vehicle: water); 105 % of control under setting [14]; 102 % of control (dose: 100.0 mg/kg/injection, schedule: Q01DX009 (ip), vehicle: water). Moreover, the T/C is, setting by setting: under setting [15], 106 % of control; (dose: 200.0 mg/kg/injection, schedule: Q01DX009 (ip), vehicle: water) 117 % of control; under setting [16], 101 % of control; (dose: 400.0 mg/kg/injection, schedule: Q01DX009 (ip), vehicle: water) 106 % of control; under setting [17], 100 % of control; (dose: 800.0 mg/kg/injection, schedule: Q01DX009 (ip), vehicle: water) 106 % of control.

Regarding `CN1c2ccc3ccccc3c2Sc2ccc3ccccc3c21`, the T/C is 100 % of control under setting [14], 100 % of control under setting [15] and 118 % of control under setting [16].

For the molecule `O=C(O)CP(=O)(O)O`, the T/C by setting is: under setting [11], 100 % of control; under setting [12], 102 % of control and 107 % of control; under setting [13], 102 % of control and 106 % of control; under setting [14], 118 % of control and 121 % of control; under setting [15], 164 % of control; under setting [16], 189 % of control and 227 % of control. Moreover, the T/C under setting [17] was 206 % of control and 255 % of control.

As for `CCCC(NC(=O)OCc1ccccc1)C(=O)NC(C(=O)O)C(C)C` (stereo not given) (Cbz-[Nva]-Val-OH; configuration not given here), the T/C runs as follows: under setting [7], 102 % of control; under setting [9], 109 % of control; under setting [10], 99 % of control.
